Data reported in patent EP0907648B1, “QUINOLONE CARBOXYLIC ACIDS SUBSTITUTED BY 7-(3-VINYL-1,4-PIPERAZINE-1-YL)” (BAYER AG, priority 1996, dated 1998).
Values after ≈ are worked out from the molar mass of the structure shown. Structures can show the parent of a compound that is named as a salt. Where two headings read alike, the source gives them in different places.

Tests used:
[1] = test system: Salmonella spp.; experiment: MIC (MHK), agar serial dilution on Iso-Sensitest agar; format: cell-based; conditions: for MIC: 20 h, Salmonella spp. S 9656, read-out: MHK-Werte; for MHK-Werte: Salmonella spp. S 9657
Description: (§1) Die minimalen Hemmkonzentrationen (MHK) der erfindungsgemäßen Verbindungen wurden per Reihenverdünnungsverfahren auf Iso-Sensitest Agar (Oxoid) bestimmt. Für jede Prüfsubstanz wurde eine Reihe von Agarplatten hergestellt, die bei jeweils doppelter Verdünnung abfallende Konzentrationen des Wirkstoffs enthielten. Die Agarplatten wurden mit einem Multipoint-Inokulator (Denley) beimpft. Zum Beimpfen wurden Übernachtkulturen der Erreger verwandt, die zuvor so verdünnt wurden, daß jeder Impfpunkt ca. 10^4 koloniebildende Partikel enthielt. Die beimpften Agarplatten wurden bei 37°C bebrütet, und das Keimwachstum wurde nach ca. 20 Stunden abgelesen. Der MHK-Wert (µg/ml) gibt die niedrigste Wirkstoffkonzentration an, bei der mit bloßem Auge kein Wachstum zu erkennen war. Die Erfassung der MHK-Werte für Mycoplasmen erfolgte mikroskopisch nach einer Inkubationszeit von 5 bis 7 Tagen.

[2] = test system: E. coli; experiment: as above; format: cell-based; conditions: for MIC: Escherichia coli, 20 h, read-out: MHK-Werte
Description: as §1

[3] = test system: S. agalactiae; experiment: as above; format: cell-based
[4] = test system: M. agalactiae PG 2; experiment: MIC (MHK) against mycoplasmas, microscopic reading; format: cell-based; conditions: Mycoplasmopsis agalactiae, PG2, incubation 5 to 7 days, read-out: MHK-Werte gegen Mycoplasmen
[5] = test system: M. bovirhinis PG 43; experiment: MIC (MHK) against mycoplasmas, microscopic reading; format: cell-based; conditions: incubation 5 to 7 days, read-out: MHK-Werte gegen Mycoplasmen
[6] = test system: M. gallisepticum PG 31; experiment: MIC (MHK) against mycoplasmas, microscopic reading; format: cell-based; conditions: Mycoplasmoides gallisepticum, PG31, incubation 5 to 7 days, read-out: MHK-Werte gegen Mycoplasmen
[7] = test system: S. suis; experiment: MIC (MHK), agar serial dilution on Iso-Sensitest agar; format: cell-based; conditions: Streptococcus suis, 20 h, read-out: MHK-Werte
[8] = test system: Staph. spp.; experiment: as above; format: cell-based; conditions: for MIC: 20 h, read-out: MHK-Werte
[9] = test system: B. bronchiseptica; experiment: as above; format: cell-based; conditions: for MIC: Bordetella bronchiseptica, 20 h, B. bronchiseptica B 9601, read-out: MHK-Werte
[10] = test system: E.-coli-Stammes 6200 Serovar 078; experiment: In vivo antibacterial efficacy in E. coli infected chicks (mortality); design: species or system Hühner-Küken; conditions: Escherichia coli; chicks infected intrathoracally, oral dose immediately after infection, mortality 48 h after infection
Description: Die antibakterielle Wirksamkeit der erfindungsgemäßen Verbindung in-vivo wurde folgendermaßen bestimmt. Zwei bis […] (Lohmann-Hybriden, Fa. Lohmann, Cuxhaven) wurden mit 5 x 10^6 KBE/ml des E.-coli-Stammes 6200 Serovar 078 (Prof. Hinz, Hannover) intrathorakal infiziert. Unmittelbar nach der Infektion erhielten jeweils Gruppen von 10 bis 20 Küken den Wirkstoff oral appliziert. Ausgetestet wurden 6 Verdünnungen einer geometrischen Verdünnungsreihe. Die Auswertung erfolgte durch […] 48 Stunden nach der Infektion. Die Wirksamkeit der betreffenden Verbindung wird als ED90 in mg/kg angegeben.

[11] = test system: M. bovis "Donetta"; experiment: microbe, parasite or virus in culture; format: cell-based; conditions: read-out: MHK-Werte gegen Mycoplasmen
[12] = test system: Bordetella; experiment: MIC (MHK), agar serial dilution on Iso-Sensitest agar; format: cell-based; conditions: Bordetella 9213 GE; for MIC: 20 h, read-out: MHK-Werte
[13] = test system: Pseudomonas spp.; experiment: as above; format: cell-based; conditions: 20 h; Pseudomonas spp. P 9510; read-out: MHK-Werte
[14] = test system: M. iowae 695; experiment: MIC (MHK) against mycoplasmas, microscopic reading; format: cell-based; conditions: incubation 5 to 7 days, read-out: MHK-Werte gegen Mycoplasmen

In the case of `C=CC1CN(c2c(F)cc3c(=O)c(C(=O)O)cn(C4CC4)c3c2Cl)CCN1` (centres unmarked) [Bsp. 1, 8-Chlor-1-cyclopropyl-6-fluor-1,4-dihydro-4-oxo-7-(3-vinyl-1,4-piperazin-1-yl)-3-chinolincarbonsäure], the MIC [1] is reported as 0.5 µg/mL (≈ 1.28 µM), the MHK-Werte [1] is reported as 0,5 µl/ml and the MIC ([2]; E. coli 21 Bui) is reported as 8 µg/mL (≈ 20.4 µM). The MIC ([2]; E. coli 3614 GE) was 4 µg/mL (≈ 10.2 µM), the MIC ([2]; E. coli 9430 LH) was 16 µg/mL (≈ 40.8 µM) and the MIC ([2]; E. coli Ec 9675) was 1 µg/mL (≈ 2.55 µM). For the same molecule, the MIC ([2]; E. coli G 293 LH) was 8 µg/mL (≈ 20.4 µM), the MHK-Werte ([3]; S. agalactiae Scc 9514) was 0,5 µl/ml and the MHK-Werte ([3]; S. agalactiae Scc 9515) was 0,5 µl/ml. For the same molecule, the MHK-Werte ([3]; S. agalactiae Scc 9520) was 0,5 µl/ml, the MHK-Werte ([3]; S. agalactiae Scc 9524) was 0,5 µl/ml and the MIC ([3]; Streptococcus agalactiae, 20 h, S. agalactiae Scc 9513, read-out: MHK-Werte) was 0.5 µg/mL (≈ 1.28 µM). The MIC [4] was 0.06 µg/mL (≈ 0.153 µM), the MIC [5] was 0.06 µg/mL (≈ 0.153 µM) and the MIC [6] was 0.03 µg/mL (≈ 0.0766 µM). It also gave an MIC ([7]; S. suis Scc 9588) of 0.06 µg/mL (≈ 0.153 µM), an MIC ([7]; S. suis Scc 9591) of 0.03 µg/mL (≈ 0.0766 µM) and an MIC ([7]; S. suis Scc 9592) of 0.25 µg/mL (≈ 0.638 µM). For the same molecule, the MIC ([7]; S. suis Scc 9595) was 0.03 µg/mL (≈ 0.0766 µM), the MIC ([7]; S. suis Scc 9603) was 0.03 µg/mL (≈ 0.0766 µM) and the MIC ([8]; Staph. spp. 2706) was 0.06 µg/mL (≈ 0.153 µM). It also gave an MIC ([8]; Staph. spp. 3781 GE) of 1 µg/mL (≈ 2.55 µM), an MIC ([8]; Staph. spp. B 5520 TGD) of 1 µg/mL (≈ 2.55 µM) and an MIC ([8]; Staph. spp. G 600 LH) of 1 µg/mL (≈ 2.55 µM). The MHK-Werte ([9]; B. bronchiseptica B 9610) was 0,25 µl/ml, the MHK-Werte ([9]; B. bronchiseptica B 9613) was 0,25 µl/ml and the MHK-Werte ([9]; B. bronchiseptica B 9618) was 0,25 µl/ml. It also gave an MIC [9] of 0.25 µg/mL (≈ 0.638 µM), an ED90 [10] of 1.25 mg/kg and an MIC [11] of 0.06 µg/mL (≈ 0.153 µM). It also gave an MIC [12] of 8 µg/mL (≈ 20.4 µM), an MIC [13] of 0.5 µg/mL (≈ 1.28 µM) and an MIC [14] of 0.03 µg/mL (≈ 0.0766 µM).

With `C=CC1CN(c2c(F)cc3c(=O)c(C(=O)O)cn(C4CC4)c3c2Cl)CCN1` (centres unmarked) [Bsp. 2, 8-Chlor-1-cyclopropyl-6-fluor-1,4-dihydro-4-oxo-7-(3-vinyl-1,4-piperazin-1-yl)-3-chinolincarbonsäure-Hydrochlorid] the MHK-Werte ([2]; E. coli 21 Bui) was 4 µl/ml, the MHK-Werte ([2]; E. coli 3614 GE) was 4 µl/ml and the MHK-Werte ([2]; E. coli 9430 LH) was 16 µl/ml. The MHK-Werte ([2]; E. coli G 293 LH) was 4 µl/ml, the MHK-Werte ([8]; Staph. spp. 3781 GE) was 1 µl/ml and the MHK-Werte [12] was 8 µl/ml.

`C=CC1CN(c2cc3c(cc2F)c(=O)c(C(=O)O)cn3C2CC2)CCN1` (centres unmarked) [Bsp. 102 aus EP-A 230 053, 1-Cyclopropyl-6-fluor-1,4-dihydro-4-oxo-7-(3-vinyl-1,4-piperazin-1-yl)-3-chinoloncarbonsäure, reference compound] gave an ED90 [10] of 5 to 10 mg/kg.

Work on `C=CC1CN(c2c(F)cc3c(=O)c(C(=O)O)cn(C4CC4)c3c2Cl)CCN1/C=C/C(=O)OCC` (centres unmarked) [Bsp. 3, 8-Chlor-1-cyclopropyl-7-[4-(2-ethoxycarbonyl-vinyl)-3-vinyl-1,4-piperazin-1-yl]-6-fluor-1,4-dihydro-4-oxo-3-chinolincarbonsäure] yielded an MIC ([2]; E. coli 21 Bui) of 8 µg/mL (≈ 16.3 µM), an MIC ([2]; E. coli 3614 GE) of 8 µg/mL (≈ 16.3 µM) and an MIC ([2]; E. coli 9430 LH) of 32 µg/mL (≈ 65.3 µM). It also gave an MIC ([2]; E. coli G 293 LH) of 16 µg/mL (≈ 32.7 µM), an MIC ([8]; Staph. spp. 2706) of 0.25 µg/mL (≈ 0.51 µM) and an MIC ([8]; Staph. spp. 3781 GE) of 2 µg/mL (≈ 4.08 µM). The MIC ([8]; Staph. spp. B 5520 TGD) was 2 µg/mL (≈ 4.08 µM), the MIC ([8]; Staph. spp. G 600 LH) was 2 µg/mL (≈ 4.08 µM) and the MIC [12] was 16 µg/mL (≈ 32.7 µM).

With `C=CC1CN(c2c(F)c(N)c3c(=O)c(C(=O)O)cn(C4CC4)c3c2F)CCN1` (centres unmarked) [Bsp. 4, 5-Amino-1-cyclopropyl-6,8-difluor-1,4-dihydro-4-oxo-7-(3-vinyl-1,4-piperazin-1-yl)-chinolincarbonsäure] the MIC [1] was 0.5 µg/mL (≈ 1.28 µM), the MHK-Werte [1] was 0,5 µl/ml and the MIC ([2]; E. coli 21 Bui) was 16 µg/mL (≈ 41 µM). The MIC ([2]; E. coli 3614 GE) was 16 µg/mL (≈ 41 µM), the MIC ([2]; E. coli 9430 LH) was 64 µg/mL (≈ 164 µM) and the MIC ([2]; E. coli Ec 9675) was 0.5 µg/mL (≈ 1.28 µM). It also gave an MIC ([2]; E. coli G 293 LH) of 32 µg/mL (≈ 82 µM), an MIC [4] of 0.03 µg/mL (≈ 0.0768 µM) and an MIC [5] of 0.25 µg/mL (≈ 0.64 µM). It also gave an MIC [6] of 0.03 µg/mL (≈ 0.0768 µM), an MIC ([8]; Staph. spp. 3781 GE) of 4 µg/mL (≈ 10.2 µM) and an MIC ([8]; Staph. spp. B 5520 TGD) of 4 µg/mL (≈ 10.2 µM). For the same molecule, the MIC ([8]; Staph. spp. G 600 LH) was 4 µg/mL (≈ 10.2 µM), the MIC ([8]; Staph. spp. ST 9640) was 0.06 µg/mL (≈ 0.154 µM) and the MHK-Werte ([9]; B. bronchiseptica B 9610) was 0,25 µl/ml. The MHK-Werte ([9]; B. bronchiseptica B 9613) was 0,25 µl/ml, the MHK-Werte ([9]; B. bronchiseptica B 9618) was 0,25 µl/ml and the MIC [9] was 0.25 µg/mL (≈ 0.64 µM). It also gave an MIC [14] of 0.06 µg/mL (≈ 0.154 µM).
